Key:
[1] = system: Human multiple myeloma cell (MM.1S); test: Tumor cell proliferation inhibition (CellTiter-Meiluncell luminescent cell viability assay); conditions: Homo sapiens, MM1.S, 96 h; for inhibition at 0.01 µM: read-out: Inhibition Rate at 10 nM (%); for inhibition at 0.5 µM: read-out: Inhibition Rate at 500 nM (%)
GSPT1 = test: Western blot, degradation of substrate protein in hPBMCs; type: cell-based, Human
[2] = system: Human myeloid monocytic leukemia cell (MV-4-11); test: Tumor cell proliferation inhibition (CellTiter-Meiluncell luminescent cell viability assay); conditions: MV4-11, 96 h; for inhibition at 0.01 µM: read-out: Inhibition Rate at 10 nM (%); for inhibition at 0.5 µM: read-out: Inhibition Rate at 500 nM (%)
Method: The tumor cells used herein were cultured in a cell culture medium listed in table 2 at 37°C in an incubator with 5% CO2. Prior to experimentation, all cell lines used were correctly identified by STR profiling, and tested negative for mycoplasma contamination using a mycoplasma detection kit through routine screenings.
The IC50 values of the compounds of the present disclosure (including the compounds in Table 1 and Examples) were determined using the CellTiter-Meiluncell Luminescent Cell Viability Assay Kit from Dalian Meilun Biotech Co., Ltd. The detailed procedure is as follows: Tumor cells were seeded in 96-well cell culture plates at the densities specified in Table 3. On the following day, the test compounds of the present disclosure were subjected to serial dilution. The dilution can be performed according to one of the following two methods: • (1) The first dilution method: The test compounds of the present disclosure (including the compounds in Table 1 and Examples) were subjected to 5-fold serial dilutions starting from a highest concentration of 2000 µM, resulting in a total of 9 concentrations from high to low (2000, 400, 80, 16, 3.2, 0.64, 0.128, 0.0256, 0.00512 µM). Subsequently, 0.5 µL of the test compound dilution was transferred into the 96-well plate containing the cells, with each well containing 100 µL of cell culture medium. […] Into the 96-well plate, the diluted test compounds and corresponding detection reagents were added, resulting in final test compound concentrations of 500 nM and 10 nM, respectively. The experimental procedure is described below using the diluted 2 µM test compound as an example.
0.5 µL of the aforementioned diluted compound of the present disclosure (including the compounds in Table 1 and Examples) was added to the seeded cells in 100 µL of medium, yielding a final test compound concentration of 10 nM. After the cells were treated with the compounds of the present disclosure for a specified period, the cell viability assay reagent was added to the culture medium according to the kit's instructions to determine cell viability. […] All controls were treated using the same procedure as the compounds of the present disclosure. The growth inhibition curves for the compounds of the present disclosure were plotted using Prism GraphPad software, and the IC50 values were calculated therefrom.

[3] = target: T1, human Cereblon WT GST-tagged protein (Homo sapiens, UniProt Q96SW2); test: CRBN-binding affinity, HTRF (CEREBLON BINDING kit); conditions: for inhibition at 0.5 µM: read-out: Inhibition Rate at 0.5 µM (%); for inhibition at 2 µM: read-out: Inhibition Rate at 2 µM (%)
T1 construct: purchased CISBIO 64BDCRBNPEH
T1 sequence (Q96SW2 whole entry): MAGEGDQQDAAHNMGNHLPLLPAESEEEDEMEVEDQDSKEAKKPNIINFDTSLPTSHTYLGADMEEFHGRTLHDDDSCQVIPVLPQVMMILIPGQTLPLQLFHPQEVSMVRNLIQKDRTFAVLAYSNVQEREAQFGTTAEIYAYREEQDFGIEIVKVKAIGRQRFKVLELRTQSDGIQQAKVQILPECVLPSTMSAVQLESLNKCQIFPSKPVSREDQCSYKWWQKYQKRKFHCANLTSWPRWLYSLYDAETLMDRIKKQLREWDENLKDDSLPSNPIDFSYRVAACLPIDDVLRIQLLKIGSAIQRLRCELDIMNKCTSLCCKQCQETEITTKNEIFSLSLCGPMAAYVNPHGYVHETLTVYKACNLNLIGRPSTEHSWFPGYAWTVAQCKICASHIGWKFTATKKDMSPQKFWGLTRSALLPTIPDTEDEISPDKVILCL

IKZF1 = target: T2, IKZF1 (Homo sapiens, UniProt Q13422+Q96SW2); test: Western blot, degradation of substrate protein in hPBMCs; type: cell-based
T2 construct: effects of the compounds of the present disclosure on the expression of target proteins in cells; endogenous in cells; host or cells: human PBMCs (Milecell Biotechnologies)
T2 sequence (Q13422 whole entry): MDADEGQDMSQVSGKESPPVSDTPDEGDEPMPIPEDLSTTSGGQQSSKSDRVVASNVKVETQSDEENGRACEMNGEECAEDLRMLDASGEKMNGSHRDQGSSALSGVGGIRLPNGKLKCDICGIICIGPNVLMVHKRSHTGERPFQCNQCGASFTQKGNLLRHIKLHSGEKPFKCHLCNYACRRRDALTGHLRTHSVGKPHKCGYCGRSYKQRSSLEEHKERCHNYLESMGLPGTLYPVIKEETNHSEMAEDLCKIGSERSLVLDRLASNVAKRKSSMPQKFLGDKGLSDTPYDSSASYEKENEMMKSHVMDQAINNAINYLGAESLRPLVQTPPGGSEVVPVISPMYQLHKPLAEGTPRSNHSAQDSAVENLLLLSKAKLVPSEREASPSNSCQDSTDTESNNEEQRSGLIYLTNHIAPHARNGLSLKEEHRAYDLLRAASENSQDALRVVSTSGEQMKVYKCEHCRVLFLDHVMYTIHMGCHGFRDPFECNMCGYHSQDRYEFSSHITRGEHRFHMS
T2 sequence (Q96SW2 whole entry): as the sequence (Q96SW2 whole entry) above
T2 sequence (Q16531 whole entry partner): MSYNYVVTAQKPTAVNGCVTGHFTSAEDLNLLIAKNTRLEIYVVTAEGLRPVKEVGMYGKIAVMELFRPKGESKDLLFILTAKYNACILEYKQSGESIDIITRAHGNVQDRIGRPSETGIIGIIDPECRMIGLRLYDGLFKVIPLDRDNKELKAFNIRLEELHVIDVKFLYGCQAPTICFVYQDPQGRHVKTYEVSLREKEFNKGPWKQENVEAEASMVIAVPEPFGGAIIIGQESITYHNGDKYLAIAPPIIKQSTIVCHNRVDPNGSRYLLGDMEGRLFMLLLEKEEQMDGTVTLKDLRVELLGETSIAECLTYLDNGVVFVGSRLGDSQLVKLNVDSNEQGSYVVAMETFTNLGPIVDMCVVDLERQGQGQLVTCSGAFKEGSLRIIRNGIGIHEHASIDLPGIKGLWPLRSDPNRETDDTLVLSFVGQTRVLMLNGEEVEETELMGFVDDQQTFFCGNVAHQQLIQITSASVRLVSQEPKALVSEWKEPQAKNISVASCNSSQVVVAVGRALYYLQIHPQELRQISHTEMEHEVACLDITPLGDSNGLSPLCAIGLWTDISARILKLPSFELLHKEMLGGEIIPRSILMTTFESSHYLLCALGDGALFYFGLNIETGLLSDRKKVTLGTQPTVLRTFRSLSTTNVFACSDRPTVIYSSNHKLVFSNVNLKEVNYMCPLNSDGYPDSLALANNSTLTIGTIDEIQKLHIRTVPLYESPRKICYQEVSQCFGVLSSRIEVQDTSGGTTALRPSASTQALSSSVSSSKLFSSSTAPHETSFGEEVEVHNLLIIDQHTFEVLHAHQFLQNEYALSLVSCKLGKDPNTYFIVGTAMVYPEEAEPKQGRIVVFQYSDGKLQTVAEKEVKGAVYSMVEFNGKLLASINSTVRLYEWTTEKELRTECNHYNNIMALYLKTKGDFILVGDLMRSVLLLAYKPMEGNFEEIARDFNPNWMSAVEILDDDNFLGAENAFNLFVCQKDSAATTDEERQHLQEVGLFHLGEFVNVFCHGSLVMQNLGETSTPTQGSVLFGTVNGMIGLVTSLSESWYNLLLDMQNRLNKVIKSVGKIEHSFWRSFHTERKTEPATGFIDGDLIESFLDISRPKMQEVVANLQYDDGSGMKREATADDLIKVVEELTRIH

IKZF3 = target: T3, IKZF3 (Homo sapiens, UniProt Q96SW2+Q9UKT9); test: as above; type: cell-based
T3 construct: effects of the compounds of the present disclosure on the expression of target proteins in cells; endogenous in cells; host or cells: human PBMCs (Milecell Biotechnologies)
T3 sequence (Q9UKT9 whole entry): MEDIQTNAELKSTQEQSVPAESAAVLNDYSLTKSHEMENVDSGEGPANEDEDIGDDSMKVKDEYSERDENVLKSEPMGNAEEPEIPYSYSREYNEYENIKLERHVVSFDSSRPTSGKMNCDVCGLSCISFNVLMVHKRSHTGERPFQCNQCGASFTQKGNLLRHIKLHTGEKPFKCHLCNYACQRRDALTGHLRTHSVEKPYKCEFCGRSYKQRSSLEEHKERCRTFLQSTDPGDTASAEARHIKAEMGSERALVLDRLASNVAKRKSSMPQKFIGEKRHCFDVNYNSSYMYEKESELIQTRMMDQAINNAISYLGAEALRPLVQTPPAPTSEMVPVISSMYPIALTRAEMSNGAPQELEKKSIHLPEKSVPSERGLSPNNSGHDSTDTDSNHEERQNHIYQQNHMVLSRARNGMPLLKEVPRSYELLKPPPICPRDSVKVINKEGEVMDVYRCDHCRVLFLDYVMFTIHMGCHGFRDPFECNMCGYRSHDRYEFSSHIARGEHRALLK
T3 sequence (Q96SW2 whole entry): as the sequence (Q96SW2 whole entry) above
T3 sequence (Q16531 whole entry partner): as the sequence (Q16531 whole entry partner) above

IKZF2 = target: T4, IKZF2 (Homo sapiens, UniProt Q96SW2+Q9UKS7); test: as above; type: cell-based
T4 construct: effects of the compounds of the present disclosure on the expression of target proteins in cells; endogenous in cells; host or cells: human PBMCs (Milecell Biotechnologies)
T4 sequence (Q9UKS7 whole entry): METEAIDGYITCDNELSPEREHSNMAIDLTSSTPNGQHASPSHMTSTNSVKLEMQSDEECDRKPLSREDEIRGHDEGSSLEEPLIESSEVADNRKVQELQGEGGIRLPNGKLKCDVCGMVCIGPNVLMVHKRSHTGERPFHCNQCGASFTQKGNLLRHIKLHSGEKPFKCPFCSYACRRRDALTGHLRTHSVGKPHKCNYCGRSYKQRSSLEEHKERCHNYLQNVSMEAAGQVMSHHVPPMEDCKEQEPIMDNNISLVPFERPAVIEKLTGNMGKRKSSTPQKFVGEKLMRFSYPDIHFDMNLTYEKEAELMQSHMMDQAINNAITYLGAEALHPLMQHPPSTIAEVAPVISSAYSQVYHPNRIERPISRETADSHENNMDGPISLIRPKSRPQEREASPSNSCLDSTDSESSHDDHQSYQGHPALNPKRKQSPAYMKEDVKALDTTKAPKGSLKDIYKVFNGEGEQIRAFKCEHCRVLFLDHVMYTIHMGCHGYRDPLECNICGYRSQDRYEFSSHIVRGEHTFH
T4 sequence (Q96SW2 whole entry): as the sequence (Q96SW2 whole entry) above
T4 sequence (Q16531 whole entry partner): as the sequence (Q16531 whole entry partner) above

CK1α = target: T5, CK1α (Homo sapiens, UniProt P48729+Q96SW2); test: as above; type: cell-based
T5 construct: effects of the compounds of the present disclosure on the expression of target proteins in cells; endogenous in cells; host or cells: human PBMCs (Milecell Biotechnologies)
T5 sequence (P48729 whole entry): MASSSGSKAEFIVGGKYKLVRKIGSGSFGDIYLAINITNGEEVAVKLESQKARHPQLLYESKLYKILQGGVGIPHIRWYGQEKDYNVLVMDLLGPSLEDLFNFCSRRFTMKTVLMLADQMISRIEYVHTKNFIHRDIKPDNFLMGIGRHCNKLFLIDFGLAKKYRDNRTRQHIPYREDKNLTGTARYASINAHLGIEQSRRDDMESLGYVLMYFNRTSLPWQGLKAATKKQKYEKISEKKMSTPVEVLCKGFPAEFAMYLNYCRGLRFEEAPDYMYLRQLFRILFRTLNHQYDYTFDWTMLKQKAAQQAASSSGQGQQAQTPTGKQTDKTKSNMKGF
T5 sequence (Q96SW2 whole entry): as the sequence (Q96SW2 whole entry) above
T5 sequence (Q16531 whole entry partner): as the sequence (Q16531 whole entry partner) above

WEE1 = target: T6, WEE1 (Homo sapiens, UniProt P30291+Q96SW2); test: as above; type: cell-based
T6 construct: effects of the compounds of the present disclosure on the expression of target proteins in cells; endogenous in cells; host or cells: human PBMCs (Milecell Biotechnologies)
T6 sequence (P30291 whole entry): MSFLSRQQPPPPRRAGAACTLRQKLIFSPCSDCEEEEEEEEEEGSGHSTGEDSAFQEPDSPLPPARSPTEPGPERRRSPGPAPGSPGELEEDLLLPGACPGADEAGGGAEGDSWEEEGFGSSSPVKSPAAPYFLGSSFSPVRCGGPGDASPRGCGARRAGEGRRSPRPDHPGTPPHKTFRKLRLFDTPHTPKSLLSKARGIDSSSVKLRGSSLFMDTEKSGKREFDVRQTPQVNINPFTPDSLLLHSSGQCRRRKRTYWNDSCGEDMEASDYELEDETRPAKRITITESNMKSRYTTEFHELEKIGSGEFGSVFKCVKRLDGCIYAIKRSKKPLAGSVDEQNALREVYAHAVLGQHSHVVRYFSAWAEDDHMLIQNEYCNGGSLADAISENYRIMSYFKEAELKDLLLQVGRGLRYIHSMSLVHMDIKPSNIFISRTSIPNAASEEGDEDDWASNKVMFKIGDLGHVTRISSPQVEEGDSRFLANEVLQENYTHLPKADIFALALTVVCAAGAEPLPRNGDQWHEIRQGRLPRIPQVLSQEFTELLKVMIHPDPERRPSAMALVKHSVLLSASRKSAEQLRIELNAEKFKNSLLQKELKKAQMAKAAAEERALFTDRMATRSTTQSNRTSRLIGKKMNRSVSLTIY
T6 sequence (Q96SW2 whole entry): as the sequence (Q96SW2 whole entry) above
T6 sequence (Q16531 whole entry partner): as the sequence (Q16531 whole entry partner) above

[4] = 24 hours treatment, compounds at 50 nM and 500 nM (concentration behind the class not stated)
[5] = Western blot, 24 hours of compound treatment, compounds tested at 50 nM and 500 nM (concentration for the table not stated)

In the case of `O=C1CCC(N2Cc3c(CN4CC=C(c5ncnc6sc(-c7ccccc7)cc56)CC4)cccc3C2=S)C(=O)N1` (stereo not drawn) [GT-08956, 3-(4-((4-(6-phenylthieno[2,3-d]pyrimidin-4-yl)-3,6-dihydropyridin-1(2H)-yl)methyl)-1-thioxoisoindolin-2-yl)piperidine-2,6-dione], the inhibition at 0.01 µM [1] was 20 to 30%, the inhibition at 0.5 µM [1] was 40 to 50% and the “GSPT1 substrate protein remaining %” value (GSPT1; [4]) was “A (0% ≤ substrate protein remaining % ≤ 80%)”. The inhibition at 0.01 µM [2] was 18 to 25%, the inhibition at 0.5 µM [2] was 40 to 60% and the inhibition at 0.5 µM [3] was 53 to 60%. The inhibition at 2 µM [3] was 60 to 80%, the “IKZF 1 substrate protein remaining %” value (IKZF1; [4]) was “B (80%< substrate protein remaining %≤ 100%)” and the “IKZF3 substrate protein remaining %” value (IKZF3; [4]) was “B (80%< substrate protein remaining %≤ 100%)”. The “IKZF2 substrate protein remaining %” value (IKZF2; [4]) was “B (80%< substrate protein remaining %≤ 100%)”, the “CK1α substrate protein remaining %” value (CK1α; [4]) was “B (80%< substrate protein remaining %≤ 100%)” and the “Wee1 substrate protein remaining %” value (WEE1; [4]) was “A (0% ≤ substrate protein remaining % ≤ 80%)”.
In the case of `O=C1CCC(N2Cc3cc(CN4CCCN(c5cccc(Cl)c5Cl)CC4)ccc3C2=S)C(=O)N1` (stereo not drawn) [GT-08481, 3-(5-((4-(2,3-dichlorophenyl)-1,4-diazepan-1-yl)methyl)-1-thioxoisoindolin-2-yl)piperidine-2,6-dione], the inhibition at 0.01 µM [1] was 30 to 40%, the inhibition at 0.5 µM [1] was 70 to 80% and the “GSPT1 substrate protein remaining %” value (GSPT1; [5]) was “A (0% ≤ substrate protein remaining % ≤ 80%)”. For the same compound, the inhibition at 0.01 µM [2] was 18 to 25%, the inhibition at 0.5 µM [2] was 60 to 80% and the inhibition at 0.5 µM [3] was 60 to 80%. For the same compound, the inhibition at 2 µM [3] was 80 to 100%, the “IKZF 1 substrate protein remaining %” value (IKZF1; [5]) was “B (80%< substrate protein remaining %≤ 100%)” and the “IKZF3 substrate protein remaining %” value (IKZF3; [5]) was “B (80%< substrate protein remaining %≤ 100%)”. For the same compound, the “IKZF2 substrate protein remaining %” value (IKZF2; [5]) was “B (80%< substrate protein remaining %≤ 100%)”, the “CK1α substrate protein remaining %” value (CK1α; [5]) was “B (80%< substrate protein remaining %≤ 100%)” and the “Wee1 substrate protein remaining %” value (WEE1; [5]) was “B (80%< substrate protein remaining %≤ 100%)”.
With `O=C1CCC(N2Cc3cc(CN4CCN(c5c[nH]c6ncccc56)CC4)ccc3C2=S)C(=O)N1` (stereo not drawn) [GT-09261, 3-(5-((4-(1H-pyrrolo[2,3-b]pyridin-3-yl)piperazin-1-yl)methyl)-1-thioxoisoindolin-2-yl)piperidine-2,6-dione] the inhibition at 0.01 µM [1] was 40 to 50%, the inhibition at 0.5 µM [1] was 40 to 50% and the “GSPT1 substrate protein remaining %” value (GSPT1; [4]) was “A (0% ≤ substrate protein remaining % ≤ 80%)”. It also gave an inhibition at 0.01 µM [2] of 40 to 60%, an inhibition at 0.5 µM [2] of 40 to 60% and an inhibition at 0.5 µM [3] of 53 to 60%. For the same compound, the inhibition at 2 µM [3] was 80 to 100%, the “IKZF 1 substrate protein remaining %” value (IKZF1; [4]) was “B (80%< substrate protein remaining %≤ 100%)” and the “IKZF3 substrate protein remaining %” value (IKZF3; [4]) was “B (80%< substrate protein remaining %≤ 100%)”. The “IKZF2 substrate protein remaining %” value (IKZF2; [4]) was “B (80%< substrate protein remaining %≤ 100%)”, the “CK1α substrate protein remaining %” value (CK1α; [4]) was “B (80%< substrate protein remaining %≤ 100%)” and the “Wee1 substrate protein remaining %” value (WEE1; [4]) was “B (80%< substrate protein remaining %≤ 100%)”.
`O=C1CCC(N2Cc3c(CN4CCN(c5cc(Cl)ccc5Cl)CC4)cccc3C2=S)C(=O)N1` (stereo not drawn) [GT-08501, 3-(4-((4-(2,5-dichlorophenyl)piperazin-1-yl)methyl)-1-thioxoisoindolin-2-yl)piperidine-2,6-dione] was tested, and the inhibition at 0.01 µM [1] was 50 to 60%, the inhibition at 0.5 µM [1] was 60 to 70% and the “GSPT1 substrate protein remaining %” value (GSPT1; [5]) was “A (0% ≤ substrate protein remaining % ≤ 80%)”. It also gave an inhibition at 0.01 µM [2] of 40 to 60%, an inhibition at 0.5 µM [2] of 40 to 60% and an inhibition at 0.5 µM [3] of 30 to 40%. For the same compound, the inhibition at 2 µM [3] was 53 to 60%, the “IKZF 1 substrate protein remaining %” value (IKZF1; [5]) was “A (0% ≤ substrate protein remaining % ≤ 80%)” and the “IKZF3 substrate protein remaining %” value (IKZF3; [5]) was “B (80%< substrate protein remaining %≤ 100%)”. The “IKZF2 substrate protein remaining %” value (IKZF2; [5]) was “A (0% ≤ substrate protein remaining % ≤ 80%)”, the “CK1α substrate protein remaining %” value (CK1α; [5]) was “B (80%< substrate protein remaining %≤ 100%)” and the “Wee1 substrate protein remaining %” value (WEE1; [5]) was “A (0% ≤ substrate protein remaining % ≤ 80%)”.
In the case of `O=C1CCC(N2Cc3cc(CN4CCN(c5c(Cl)cncc5Br)CC4)ccc3C2=S)C(=O)N1` (stereo not drawn) [GT-09264, 3-(5-((4-(3-bromo-5-chloropyridin-4-yl)piperazin-1-yl)methyl)-1-thioxoisoindolin-2-yl)piperidine-2,6-dione], the inhibition at 0.01 µM [1] was 30 to 40%, the inhibition at 0.5 µM [1] was 40 to 50% and the “GSPT1 substrate protein remaining %” value (GSPT1; [4]) was “A (0% ≤ substrate protein remaining % ≤ 80%)”. For the same compound, the inhibition at 0.01 µM [2] was 30 to 40%, the inhibition at 0.5 µM [2] was 40 to 60% and the inhibition at 0.5 µM [3] was 80 to 100%. The inhibition at 2 µM [3] was 80 to 100%, the “IKZF 1 substrate protein remaining %” value (IKZF1; [4]) was “B (80%< substrate protein remaining %≤ 100%)” and the “IKZF3 substrate protein remaining %” value (IKZF3; [4]) was “B (80%< substrate protein remaining %≤ 100%)”. For the same compound, the “IKZF2 substrate protein remaining %” value (IKZF2; [4]) was “B (80%< substrate protein remaining %≤ 100%)”, the “CK1α substrate protein remaining %” value (CK1α; [4]) was “B (80%< substrate protein remaining %≤ 100%)” and the “Wee1 substrate protein remaining %” value (WEE1; [4]) was “B (80%< substrate protein remaining %≤ 100%)”.

From patent EP4745135A1 (Gluetacs Therapeutics (Shanghai) Co., Ltd., priority 2023, dated 2025)
